# Measurements published in patent publication US12054494B2, “Compound with anticancer activity” (KYOWA KIRIN CO., LTD., priority 2018, dated 2024).
# Test system: SU-DHL-4 cells
# Assay: Inhibitory effect on cell viability (Cell Counting Kit-8)
# Assay type: cell-based
# Conditions: Homo sapiens, 72 hours culture with test compound, concentration showing 90% inhibition rate of cell viability
# Experimental: Inhibitiory Effect on Cell Viability
# SU-DHL-4 cells (Code No. ACC 495, Deutsche Sammlung von Mikroorganismen and Zellkulturen GmbH) were cultured at 37° C. using a carbon dioxide incubator (95% air, 5% CO2) in RPMI1640 medium (Code No. 11875-093, Thermo Fisher Scientific) in which inactivated fetal bovine serum (FBS: Code No. 10099-148, Thermo Fisher Scientific) in an amount to give a final concentration of 10 vol % and penicillin/streptomycin solution (PS: Code No. 15140-122, Thermo Fisher Scientific) in an amount to give a final concentration of 1 vol % were added. The cells were passaged twice a week at a volume of 20-40 mL so as to maintain a cell concentration of 1×10^6 cells/mL or less.
# The cultured SU-DHL-4 cells were seeded at 2000 cells/well in a transparent 384-well plate (Code No. 781182, Greiner bio-one). After seeding, the cells were precultured at 37° C. in a carbon dioxide gas incubator for 18 to 25 hours. Next, 1, 0.1 or 0.01 mmol/L DMSO solution of the test compound was prepared and a 9-step dilution series were prepared so that the concentration will be 200 times the final concentration in the RPMI1640 medium containing the above FBS and PS, and 1/200 volume of the dilution series were added to each well. At this time, the final concentration of DMSO was adjusted to be 0.1 vol %. After adding the test compound, the cells were cultured at 37° C. in a carbon dioxide gas incubator for 72 hours. Next, 0.020 mL of Cell Counting Kit-8 (Code No. CK04, DOJINDO) solution diluted 2-fold or 4-fold with phosphate buffered saline (PBS) was added to each well. Color reaction was carried out in a carbon dioxide gas incubator at 37° C. for 2 to 3 hours, and the absorbance at a wavelength of 450 nm was measured using SpectraMax 340PC (Molecular Devices). The inhibition rate of cell viability was calculated by the following formula, and the concentration of the test compound (IC90 value) showing a 90% inhibition rate of cell viability was calculated. Inhibition rate of cell viability (%)=100−(A−B)/(C−B)×100 • A: Absorbance of a well containing test compound • B: Absorbance of a well without addition of cells • C: Absorbance of a well without addition of test compound
row,Structure (SMILES),IC90 [nM]
1,"CCC(=O)N1c2ccccc2[C@H](Nc2ccc(C(=O)N3CC(NC(=O)c4ccc(C5=N[C@@H](CC(=O)OC(C)(C)C)c6nnc(C)n6-c6sc(C)c(C)c65)cc4)C3)cc2)C[C@@H]1C [Compound 1n, tert-Butyl 2-[(S)-2,3,9-trimethyl-4-(4-{[1-(4-{[(2S,4R)-2-methyl-1-propionyl-1,2,3,4-tetrahydroquinolin-4-yl]amino}benzoyl)azetidin-3-yl]carbamoyl}phenyl)-6H-thieno[3,2-f][1,2,4]triazolo[4,3-a][1,4]diazepin-6-yl]acetate]",0.49
2,"CCC(=O)N1c2ccccc2[C@H](Nc2ccc(CNCc3cn(-c4ccc(N[C@@H]5C[C@H](C)N(C(=O)CC)c6ccccc65)cc4)nn3)cc2)C[C@@H]1C [Compound 5h, 1-((2S,4R)-2-Methyl-4-((4-((((1-(4-(((2S,4R)-2-methyl-1-propionyl-1,2,3,4-tetrahydroquinolin-4-yl)amino)phenyl)-1H-1,2,3-triazol-4-yl)methyl)amino)methyl)phenyl)amino)-3,4-dihydroquinolin-1(2H)-yl)propan-1-one]",0.12
3,"Cc1sc2c(c1C)C(c1ccc(C(=O)NCCCNC(=O)c3ccc(C4=N[C@@H](CC(=O)OC(C)(C)C)c5nnc(C)n5-c5sc(C)c(C)c54)cc3)cc1)=N[C@@H](CC(=O)OC(C)(C)C)c1nnc(C)n1-2 [Compound 1b, Di-tert-butyl 2,2′-[(6S,6′S)-({[propane-1,3-diylbis(azanediyl)]bis(carbonyl)}bis(4,1-phenylene))bis(2,3,9-trimethyl-6H-thieno[3,2-f][1,2,4]triazolo[4,3-a][1,4]diazepine-4,6-diyl)]diacetate]",1.78
4,"CCC(=O)N1c2ccccc2[C@H](NCCCCCCCC(=O)Nc2ccc(N[C@@H]3C[C@H](C)N(C(=O)CC)c4ccccc43)cc2)C[C@@H]1C (relative stereo) [Compound 12h, 8-(((2S*,4R*)-2-Methyl-1-propionyl-1,2,3,4-tetrahydroquinolin-4-yl)amino)-N-(4-(((2S,4R)-2-methyl-1-propionyl-1,2,3,4-tetrahydroquinolin-4-yl)amino)phenyl)octanamide]",3.92
5,"CCC(=O)N1c2ccccc2[C@H](Nc2ccc(CNCc3cn(-c4ccc(N[C@@H]5C[C@H](C)N(C(=O)CC)c6ccccc65)nc4)nn3)cc2)C[C@@H]1C (relative stereo) [Compound 10j, 1-((2S,4R)-2-Methyl-4-((4-((((1-(6-(((2S*,4R*)-2-methyl-1-propionyl-1,2,3,4-tetrahydroquinolin-4-yl)amino)pyridin-3-yl)-1H-1,2,3-triazol-4-yl)methyl)amino)methyl)phenyl)amino)-3,4-dihydroquinoline-1(2H)-yl)propan-1-one]",1.73
6,"CCC(=O)N1c2ccccc2[C@H](Nc2ccc(NC(=O)CCS(=O)(=O)Nc3ccc(N[C@@H]4C[C@H](C)N(C(=O)CC)c5ccccc54)cc3)cc2)C[C@@H]1C [Compound 6b, N-(4-(((2S,4R)-2-Methyl-1-propionyl-1,2,3,4-tetrahydroquinolin-4-yl)amino)phenyl)-3-(N-(4-(((2S,4R)-2-methyl-1-propionyl-1,2,3,4-tetrahydroquinolin-4-yl)amino)phenyl)sulfamoyl)propanamide]",0.1
7,"CCC(=O)N1c2ccccc2[C@H](Nc2ccc(C(=O)NCCn3cc(-c4ccc(N[C@@H]5C[C@H](C)N(C(=O)CC)c6ccccc65)cc4)cn3)cc2)C[C@@H]1C [Compound 6q, 4-(((2S,4R)-2-Methyl-1-propionyl-1,2,3,4-tetrahydroquinolin-4-yl)amino)-N-(2-(4-(4-(((2S,4R)-2-methyl-1-propionyl-1,2,3,4-tetrahydroquinolin-4-yl)amino)phenyl)-1H-pyrazol-1-yl)ethyl)benzamide]",0.45

# More lines, now with the values ahead:
row,IC90 [nM],Structure (SMILES)
1,8.83,"CCC(=O)N1c2ccccc2[C@H](Nc2ccc(OCCNC(=O)c3ccc(N[C@@H]4C[C@H](C)N(C(=O)CC)c5ccccc54)cc3)cc2)C[C@@H]1C [Compound 5n, 4-(((2S,4R)-2-Methyl-1-propionyl-1,2,3,4-tetrahydroquinolin-4-yl)amino)-N-(2-(4-(((2S,4R)-2-methyl-1-propionyl-1,2,3,4-tetrahydroquinolin-4-yl)amino)phenoxy)ethyl)benzamide]"
2,34.9,"CCC(=O)N1c2ccccc2[C@H](NCCCC2CCN(C(=O)Nc3ccc(N[C@@H]4C[C@H](C)N(C(=O)CC)c5ccccc54)cc3)CC2)C[C@@H]1C (relative stereo) [Compound 12d, N-(4-(((2S,4R)-2-Methyl-1-propionyl-1,2,3,4-tetrahydroquinolin-4-yl)amino)phenyl)-4-(3-(((2S*,4R*)-2-methyl-1-propionyl-1,2,3,4-tetrahydroquinolin-4-yl)amino)propyl)piperidine-1-carboxamide]"
3,10.6,"CCC(=O)N1c2ccccc2[C@H](Nc2ccc(C(=O)NC3CN(C(=O)c4ccc(N[C@@H]5C[C@H](C)N(C(=O)CC)c6ccccc65)cc4)C3)cc2)C[C@@H]1C (relative stereo) [Compound 1g, 4-{[(2S*,4R*)-2-Methyl-1-propionyl-1,2,3,4-tetrahydroquinolin-4-yl]amino}-N-[1-(4-{[(2S*,4R*)-2-methyl-1-propionyl-1,2,3,4-tetrahydroquinolin-4-yl]amino}benzoyl)azetidin-3-yl]benzamide]"
4,29.1,"CCC(=O)N1c2ccccc2[C@H](Nc2ccc(NC(=O)[C@@H](C)NC(=O)c3ccc(N[C@@H]4C[C@H](C)N(C(=O)CC)c5ccccc54)cc3)cc2)C[C@@H]1C (relative stereo) [Compound 2c, 4-{[(2S,4R)-2-Methyl-1-propionyl-1,2,3,4-tetrahydroquinolin-4-yl]amino}-N-{(R)-1-[(4-{[(2S*,4R*)-2-methyl-1-propionyl-1,2,3,4-tetrahydroquinolin-4-yl]amino}phenyl)amino]-1-oxopropan-2-yl}benzamide]"
5,0.04,"CCC(=O)N1c2ccccc2[C@H](Nc2ccc(C(=O)NCc3cn(-c4ccc(N[C@@H]5C[C@H](C)N(C(=O)CC)c6ccccc65)cc4)nn3)cc2)C[C@@H]1C [Compound 3a, 4-{[(2S,4R)-2-Methyl-1-propionyl-1,2,3,4-tetrahydroquinolin-4-yl]amino}-N-{[1-(4-{[(2S,4R)-2-methyl-1-propionyl-1,2,3,4-tetrahydroquinolin-4-yl]amino}phenyl)-1H-1,2,3-triazol-4-yl]methyl}benzamide]"
6,0.11,"CCC(=O)N1c2ccccc2[C@H](Nc2ccc(Cc3cnc4n3CCN(C(=O)c3ccc(N[C@@H]5C[C@H](C)N(C(=O)CC)c6ccccc65)cc3)C4)cc2)C[C@@H]1C [Compound 5q, 1-((2S,4R)-2-Methyl-4-((4-((7-(4-(((2S,4R)-2-methyl-1-propionyl-1,2,3,4-tetrahydroquinolin-4-yl)amino)benzoyl)-5,6,7,8-tetrahydroimidazo[1,2-a]pyrazin-3-yl)methyl)phenyl)amino)-3,4-dihydroquinolin-1(2H)-yl)propan-1-one]"
7,0.13,"CCC(=O)N1c2ccccc2[C@H](Nc2ccc(C(=O)NCC#CC(=O)N3CCC(N[C@@H]4C[C@H](C)N(C(=O)CC)c5ccccc54)CC3)cc2)C[C@@H]1C [Compound 10c, 4-(((2S,4R)-2-Methyl-1-propionyl-1,2,3,4-tetrahydroquinolin-4-yl)amino)-N-(4-(4-(((2S,4R)-2-methyl-1-propionyl-1,2,3,4-tetrahydroquinolin-4-yl)amino)piperidin-1-yl)-4-oxobut-2-yn-1-yl)benzamide]"
8,2.68,"CCC(=O)N1c2ccccc2[C@H](Nc2ccc(OCCCNC(=O)c3ccc(N[C@@H]4C[C@H](C)N(C(=O)CC)c5ccccc54)cc3)cc2)C[C@@H]1C [Compound 5p, 4-(((2S,4R)-2-Methyl-1-propionyl-1,2,3,4-tetrahydroquinolin-4-yl)amino)-N-(3-(4-(((2S,4R)-2-methyl-1-propionyl-1,2,3,4-tetrahydroquinolin-4-yl)amino)phenoxy)propyl)benzamide]"
9,0.003,"CCC(=O)N1c2ccccc2C(Nc2ccc(NC(=O)C#CCNC(=O)c3ccc(N[C@@H]4C[C@H](C)N(C(=O)CC)c5ccccc54)cc3)cc2)CC1C (stereo partly drawn) [Compound 6h, 4-(((2S,4R)-2-Methyl-1-propionyl-1,2,3,4-tetrahydroquinolin-4-yl)amino)-N-(4-((4-((2-methyl-1-propionyl-1,2,3,4-tetrahydroquinolin-4-yl)amino)phenyl)amino)-4-oxobut-2-yn-1-yl)benzamide]"
10,0.32,"CCC(=O)N1c2ccccc2[C@H](Nc2ccc(NC(=O)CNC(=O)C(F)=C3CCC(N[C@@H]4C[C@H](C)N(C(=O)CC)c5ccccc54)CC3)cc2)C[C@@H]1C (relative stereo) [Compound 15k, 2-Fluoro-2-(4-(((2S*,4R*)-2-methyl-1-propionyl-1,2,3,4-tetrahydroquinolin-4-yl)amino)cyclohexylidene)-N-(2-((4-(((2S,4R)-2-methyl-1-propionyl-1,2,3,4-tetrahydroquinolin-4-yl)amino)phenyl)amino)-2-oxoethyl)acetamide]"
